In US6337333B1, “Method of treating autoimmune disease with fludarabine-5′-monophosphate” (priority 1992, dated 2002):

Columns and labels:
[1] = system: human T-lymphoblastoid cell lines; conditions: cited from earlier work
[2] = system: T and B lymphocytes; assay: Mitogen response of PBMC enriched for T or B lymphocytes continuously cultured with drug; type: cell-based, human; conditions: cultures continuously exposed to drug
Procedure: In FIG. 2, peripheral blood mononuclear cells enriched for either T (top) or B (bottom) lymphocytes were continuously cultured with the appropriate concentrations of drug for 3 or 6 days, respectively. The mitogen PHA-P was used at 5 μg/ml and the mitogen PWM was used at 1 μg/ml. The wells were pulsed and harvested as described above.
The adenosine analog 2-chlorodeoxyadenosine (2CDA) has also been reported to have significant cytotoxic and immunosuppressive effects on normal lymphocytes (10,13).

[3] = system: IgM production; assay: Cumulative IgM production in SAC + rIL-2 cultures, EIA; type: cell-based, human; conditions: for accumulation of IgM: 5 and 10 day SAC rIL-2 cultures, preliminary studies
Procedure: In FIG. 5, peripheral blood mononuclear cells (PBMC) enriched for B lymphocytes (BC89; 60% CD19, 59% CD20, 8% CD3) were continuously cultured at 5×10^5/ml and stimulated with Staphylococcus aureus Cowan I (SAC) plus interleukin 2 (IL-2) (50 U/ml) in the presence of 1.0 μg/ml of FLP. Recombinant IL-6 was added to 50 U/ml. After the culture period, the supernatants were harvested and assayed for huIgM by EIA. Results shown are from 1 representative experiment of 5 different experiments conducted with 5 different sources of leukocyte preparations. […]
In FIG. 7, peripheral blood mononuclear cells (PBMC) enriched for B lymphocytes (BC92; 35% CD19, 33% CD20, 35% CD3) were continuously cultured for 5 days in either medium alone, Staphylococcus aureus Cowan I (SAC) plus interleukin 2 (IL-2) (50 U/ml), or SAC plus IL-2 in the presence of various concentrations of FLP or 2-chlorodeoxyadenosine (2CDA). After 5 days of culture, the supernatants were harvested and serial dilutions of supernatant assayed for huIgM and huIgG by EIA. The presence of IgM rheumatoid factor (IgM-RF) was determined by EIA using the Vectastain Biotin-Streptavidin amplification system. Results are reported as O.D. 405 nm units. […] The results shown are from 1 representative experiment of 4 separate experiments conducted with 4 different sources of packed leukocytes.
In FIG. 8, peripheral blood mononuclear cells (PBMC) enriched for B lymphocytes (BC92, 35% CD19, 33% CD20, 35% CD3) were continuously cultured for 10 days in either medium alone, Staphylococcus aureus Cowan I (SAC) plus interleukin 2 (IL-2) (50 U/ml), or SAC plus IL-2 in the presence of various concentrations of FLP or 2CDA. At the end of the culture period, the supernatants were harvested and serial dilutions assayed for huIgM, huIgG, and IgM-RF by EIA. The cells were phenotyped by flowcytometry. Results are reported as O.D. 405 nm units. […] The results shown are from 1 experiment representative of 3 separate experiments conducted with 3 different sources of packed leukocytes.
In FIG. 9, peripheral blood mononuclear cells (PBMC) (BC93; 22% CD19, 20% CD20, 78% CD3) were continuously cultured for 5 days in either medium alone, Staphylococcus aureus Cowan I (SAC) plus interleukin 2 (IL-2) (50 U/ml) or 20% T cell conditioned medium (Tcm) in the presence of various concentrations of FLP. At the end of the 5 day culture period, the supernatants were harvested and serial dilutions assayed for huIgM, huIgG, and IgM-RF by EIA. The results are reported as O.D. 405 nm units. […] The results shown are from one representative experiment.
Immulon-2 (Dynatek Laboratories, #011-010-3450, Chantilly, Va.) flat-bottom 96 well microtiter plates were coated with 100 μl/well of a 2 μg/ml solution of goat F(ab′)2 anti-HuIgM (μ chain, CALTAG #H15100, So. San Francisco, Calif.) or goat F(ab′)2 anti-HuIgG (Fc sp., CALTAG #H10100) in 0.1 M sodium carbonate buffer, pH 9.6 overnight at 4° C. Uncoated wells were incubated with the carbonate buffer alone. The plates were rinsed and then incubated with 100 μl/well of 0.1% BSA/PBS for 1 hr at RT.

[4] = system: B lymphocytes; conditions: SAC + rIL-2, drug present 0-72 hr, 72-144 hr or continuously; results not shown
Procedure: The B lymphocytes are cultured with SAC +rIL-2 under the following conditions:
1. 0 to 72 hr + drug (0.1-0.5 […]), wash, continue culture for additional 72 hr
2. 0 to 72 hr, wash, add drug for additional 72 hr culture
3. No drug for 6 days (wash at 3 days)
4. Drug in continuous culture for 6 days
At the end of the culture period, the supernatants are assayed for IgM, IgG, and IgM-RF.

[5] = B-CLL patients; cited from earlier work
[6] = one microgram per ml, 5 days, FIG. 7A

## Nc1nc(Cl)nc2c1ncn2[C@H]1C[C@H](O)[C@@H](CO)O1 [2CDA, 2-chlorodeoxyadenosine]
[1]
  levels giving growth inhibition: nanomolar levels
[2]
  level of drug that suppresses the mitogen response: 0.5 µg/mL
[3]
  accumulation of IgM: dose-related decrease
[3]; [6]
  effect on IgM production: block
[3]; one microgram per ml, 10 days
  effect on IgM accumulation: block the accumulation

## Nc1nc(F)nc2c1ncn2[C@@H]1O[C@H](COP(=O)(O)O)[C@@H](O)[C@@H]1O [FLP, fludarabine-5′-monophosphate]
[4]
  part of the life cycle on which the drug has its primary effect: early stage B lymphocyte proliferation/differentiation
[2]
  level of drug that suppresses the mitogen response: 0.5 µg/mL
[3]; 0.1 μg/ml, 10 days, FIG. 8A
  effect on IgM accumulation: minimal effect
[3]; 1 μg, 10 days, FIG. 8A
  reduction of IgM accumulation: 80%
[3]; 1.0 μg/ml, 5 day cultures, FIG. 5
  detectable IgM in supernatants: background levels
[3]; 5 μg, 10 days, FIG. 8A
  reduction of IgM accumulation: 98%
[3]; 5 μg/ml, 5 days, FIG. 7A
  effect on IgM accumulation: block any measurable IgM accumulation
[3]; 0.1 and 0.5 μg/ml, PBMC, 5 days, cultures containing rIL-2 or 20% T cell conditioned medium, FIG. 9A
  effect on IgM accumulation: reduce
[3]
  accumulation of IgM: dose-related decrease
[3]; one hundred nanograms per ml, 5 days, FIG. 7A
  effect on IgM production: minimal effect
[3]; [6]
  effect on IgM production: intermediate effect
[5]
  peak concentration of F-ara-ATP in the lymphocytes relative to the serum peak: 10 fold
